Experiment: Starch aging inhibiting effect, enzyme assay 1 and 2 (β-amylase degradation of corn starch gel)
Experimental: After the individual test samples were mixed into corn starch gel and left to stand at low temperature for 96 hours, the aging level was evaluated via a degradation experiment using β-amylase. The method described below is an evaluation scheme that is an improvement over the BAP method (K. Kainuma, et al, Journal of the Japanese Society of Starch Science 1981, 28, 235.) and only uses β-amylase.
The 4-trehalosamine (4TA) obtained in production example 10, and trehalose (TRH), sucrose (SCR), and glycerol (hereinafter, sometimes referred to as “GOL”) were each dissolved in water to a final concentration of 10% (w/w), thus preparing aqueous solutions. […]
Quantification (absorbance measurement) of enzyme reaction and sugar were performed for the 24-hour, the 48-hour, or the 96-hour sample in a similar manner to the quantification (absorbance measurement) of enzyme reaction and sugar for the 0-hour sample except that the measurement sample was changed to the 24-hour sample, the 48-hour sample, or the 96-hour sample in the quantification (absorbance measurement) of enzyme reaction and sugar for the 0-hour sample. […]

N[C@H]1[C@H](O)[C@@H](O)[C@@H](O[C@H]2O[C@H](CO)[C@@H](O)[C@H](O)[C@H]2O)O[C@@H]1CO [4-trehalosamine]
β-amylase degradation rate (starch aging inhibiting effect) (final concentration 5% to 15%, 96 hours): maintained β-amylase degradation rate at 96 hours significantly high compared to the other gels | rate of degradation by β-amylase (starch aging inhibiting effect) (test sample final concentration 10% (w/w), 6° C., 24 to 96 hours): significantly high rate of degradation by β-amylase at and after 24 hours compared to the other gels

— US20250002954A1, “Novel Compound, Use Thereof, and Method for Producing Same, and Compound-Containing Composition, Method for Producing 4-Trehalosamine, and Microorganism” (Microbial Chemistry Research Foundation, priority 2021, published 2025)
